Test results published in PMC3166647 (Analytical and bioanalytical chemistry, 2011).

Biological target: T1, methionine aminopeptidase 1 (MetAP1) (Plasmodium yoelii, UniProt Q7RFT5)
T1 sequence (Q7RFT5 1-491): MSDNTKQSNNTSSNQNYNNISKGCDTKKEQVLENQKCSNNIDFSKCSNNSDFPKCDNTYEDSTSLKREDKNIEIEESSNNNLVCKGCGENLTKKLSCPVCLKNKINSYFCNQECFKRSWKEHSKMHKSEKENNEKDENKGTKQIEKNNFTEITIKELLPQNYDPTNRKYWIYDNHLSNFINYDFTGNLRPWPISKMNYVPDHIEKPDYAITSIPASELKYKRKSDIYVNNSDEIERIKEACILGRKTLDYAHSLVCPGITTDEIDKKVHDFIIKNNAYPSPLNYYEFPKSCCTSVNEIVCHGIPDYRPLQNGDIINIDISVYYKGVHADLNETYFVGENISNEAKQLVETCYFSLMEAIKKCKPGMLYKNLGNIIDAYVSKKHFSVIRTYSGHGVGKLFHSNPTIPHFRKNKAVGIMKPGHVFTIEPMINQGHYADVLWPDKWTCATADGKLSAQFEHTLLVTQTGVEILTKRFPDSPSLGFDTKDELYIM
Assay: competition ultrafiltration with HPLC-UV
Type: binding
Settings: 4 °C; competes with fragments 4-9

CSCC[C@H](N)C(=O)O [methionine]
competition ultrafiltration with HPLC-UV: methionine was able to compete against lower-affinity ligands more efficiently than higher-affinity ligands
